Results on four molecules are retold here after patent publication US12674026B2, “Process for preparing polyol-based esters of acyl-capped hydroxy carboxylic acids” (KetoLipix Therapeutics GmbH, priority 2019, dated 2026).

The test system of data set [1] is pancreatin. The protocol:
Both media are from the company Biorelevant®, Ltd. in Great Britain. In addition, in some experiments porcine pancreas is added (Panzytrat® 40,000, Fa. Allergan).
The pancreatin is used in the form of the commercially available product Panzytrat® 40,000 from the Allergan company. The whole mixture is stirred on a hotplate at 50° C.; the course of the reaction is determined and followed by continuous recording of the acid number over time.

The conditions of data set [2]: even if several grams are taken; cited from earlier work.

In the case of “3-acetylacetobutyric acid di-diglycerol ester [3-acetylaceto-BHB di-diglycerol ester]”, the cleavage by pancreatin result in data set [1] is on record as “cleaved by pancreatin”.

On to “3-acetylacetobutyric acid mono-diglycerol ester [3-acetylaceto-BHB mono-diglycerol ester]”, for which, in data set [1], the cleavage by pancreatin entry is listed as “cleaved by pancreatin”.

On to “3-acetylacetobutyric acid tri-diglycerol ester [3-acetylaceto-BHB tri-diglycerol ester]”, for which the cleavage by pancreatin entry in data set [1] is “cleaved by pancreatin”.

Turning to `CC(O)CC(=O)O` (stereo not shown) [3-hydroxybutyric acid], the duration of ketosis entry in data set [2] is “three to four”.
